Columns and labels:
[1] = Moisture absorption/desorption test; assay type: physicochemical; settings: for Weight change ratio, Adsorption / Weight change ratio, Desorption: 25° C.
Description: Moisture absorption/desorption test was carried out with respect to Compound A, monofumarate of Compound A, hemifumarate of Compound A, hemitartrate of Compound A and monophosphate of Compound A, to research the presence or absence of the characteristic of channel hydrate.
In the moisture absorption/desorption test, measurements were carried out according to the following conditions.
A dedicated quartz holder was filled with about from 5 to 10 mg of sample, and a weight of the sample at each humidity was measured and recorded in a continuous manner under the following conditions. Handling of the devices including data processing was based on the method and the process indicated in each device.
Device: VTI SA+ (manufactured by TA Instruments Inc.)
Drying temperature: 60° C.
Temperature rising speed: 1° C./min.
Equilibrium in drying: It is confirmed that no reduction of 0.01 wt % occurs in 5 minutes, in a range not exceeding 300 minutes.
Temperature for measurement: 25° C.
Equilibrium in humidification: It is confirmed that no increase of 0.01 wt % occurs in 5 minutes, in a range not exceeding 120 minutes.
Relative humidity program: Raised by 5% RH from 5% RH to 95% RH, and lowered by 5% RH from 95% RH to 5% RH.

[2] = molecular target: recombinant human BTK protein (Homo sapiens (Human), UniProt Q06187); test: Measurement of BTK inhibitory activity (in vitro); assay type: biochemical; settings: ATP 45 μM, FL-Peptide 2 substrate
From the text: In a condition set for a method of measuring inhibitory activity in vitro of the compounds against BTK kinase activity, FL-Peptide 2 was used as a substrate, since it was described in a price list of LabChip (Registered trademark) series sample consumables of PerkinElmer Co., Ltd. that FL-Peptide 2 corresponded to a substrate peptide in a measurement of BTK kinase activity. The refined recombinant human BTK protein used in the test was purchased from Carna Biosciences, Inc.
With regard to the measurement of the inhibitory activity of the compounds, firstly, monofumarate of Compound A was diluted stepwise with dimethyl sulfoxide (DMSO). Subsequently, BTK protein, a substrate peptide (final concentration was 1 μM), magnesium chloride (final concentration was 10 mM), ATP (final concentration was 45 μM), and a DMSO solution of the test compounds (final concentration of DMSO was 5%) were added to a buffer solution for kinase reaction (20 mM HEPES (pH 7.5), 2 mM dithiotheitol, 0.01% Triton X-100), and after the solution was incubated for 40 minutes at 25° C., a kinase reaction was carried out. […] Finally, a substrate peptide that was not phosphorylated (S) and a phosphorylated peptide (P) were separated and detected by microchannel capillary electrophoresis with a LabChip EZ Reader II (PerkinElmer, Inc.). […]

[3] = tested on: recombinant human EGFR protein / BTK; test: BTK inhibition selectivity compared with EGFR kinase inhibitory activity (in vitro); assay type: biochemical
Description: 1) Measurement of BTK Inhibitory Activity
2) Measurement of EGFR Inhibitory Activity
Therefore, a biotinated peptide (biotin-[…]) was produced by referring to the amino acid sequence of the peptide. The purified recombinant human EGFR protein used in the test was purchased from Carna Biosciences, Inc.
The reaction was terminated by adding EDTA thereto so as to obtain a final concentration of 24 mM. Subsequently, a detection liquid containing Eu-labeled anti-phosphotyrosine antibody PT66 (PerkinElmer, Inc.) and […] APC-SA (PerkinElmer, Inc.) was added thereto, and the system was left to stand for 2 hours or longer at room temperature. […] 3) BTK Inhibition Selectivity

A431 cells / TMD8 cells = test: Proliferation inhibitory activity against cell lines expressing BTK and EGFR, and selectivity; assay type: cell-based, human
From the text: TMD8 cells, which are of a diffuse large B-cell lymphoma cell line expressing BTK, were suspended in RPMI1640 medium (manufactured by Life Technologies Corp.) containing 10% fetal bovine serum. A431 cells, which are of an EGFR-overexpressing, highly activated human epidermoid carcinoma cell line, were suspended in DMEM, high glucose medium (manufactured by Life Technologies Corp.) containing 10% fetal bovine serum. The cell suspensions were inoculated into each well of 384-well flat-bottomed microplates, and the cells were cultured for 1 day at 37° C. in an incubator containing 5% carbon dioxide gas. […] A DMSO solution of the test compounds was diluted with the medium used in the suspension of the each cell, and this was added to each of the wells of the cell culture plates such that the final concentration of DMSO would be 0.2%. The cells were further cultured for 3 days at 37° C. in an incubator containing 5% carbon dioxide gas. […] Proliferation inhibition ratio (%)=(C−T)/(C−C0)×100
C0: Luminescence intensity of a well measured before the addition of the test compound

[4] = tested on: mouse collagen-induced arthritis model; test: Mice collagen-induced arthritis model; assay type: in vivo, DBA/1 mice; settings: 0.381 mg/kg, oral, 1 time per day, 17 days; FIG. 11
Description: The test was carried out in accordance with the method described in Non-Patent Literature (Brand D D, et al., Nat Protoc. 2007; 2, 1269-1275, Xu D. et al., JPET, 2012 April; 341 (1):90-103). Seven-week-old male/DBA/1 mice (CHARLES RIVER LABORATORIES JAPAN, INC.) were intracutaneously injected in the dorsum with 100 μL/body of an equal amount-mixed solution (emulsion) of 4 mg/mL of bovine type 2 collagen solution (Collagen Research Center) and Complete Freund's Adjuvant (DIFCO Inc.) (initial immunization). After 21 days therefrom, the mice were intracutaneously injected in the chine with 100 μL/body of an equal amount-mixed solution (emulsion) of 4 mg/mL of bovine type 2 collagen solution (Collagen Research Center) and Complete Freund's Adjuvant (DIFCO) to provide an additional immunization. The oral administration of 1 time per day was continued for 17 days setting the administration initiation day (day 0) as the eighth day from the additional immunization. Symptoms of arthritis in day 0, day 3, day 7, day 10, day 14 and day 17 were scored macroscopically (0: No change, 1: Swelling of a finger, 2: Swelling of two fingers or more, 3: Swelling of instep, 4: Swelling of all fingers extending wrist/ankle), and a total in four limbs was obtained as a point of individual body (maximum 16 points).

[5] = Blood concentration measurement test after oral administration; settings: mice
Description: These administration solutions were orally administered to mice (Balb/cA) which had been bred under a feeding condition, at a dose of 10 mL per 1 kg body weight, with a sonde for oral administration. After the administration, the mice were returned to a cage for mice and conditions were checked. Inside the cage was provided with a condition where water and food were accessible ad libitum. After 0.25, 0.5, 1, 2, 4 and 6 hours from the administration, the mice were anesthetized with isoflurane, and 60 μL of blood was collected from orbital sinus with a capillary blood collection tube.
The collected blood was ice cooled, and blood plasma was separated by a centrifugal operation. The mice after the blood collection was returned to an animal breeding cage, and conditions after recovery from the anesthesia were checked. When the last blood collection was finished, the mice were euthanized by cervical dislocation, after a level check of isoflurane anesthesia.
AUC0-6 hr, Cmax and Tmax were calculated by linear-log trapezoid method with Phoenix WinNonlin (v6.3.0) which is a software manufactured by Pharsight Corporation, from a concentration of Compound A in each blood plasma measured by MRM method with LC-MS/MS.

[6] = 50 mg/kg in terms of Compound A, 0.5% HPMC suspension, plasma Compound A

Sequence of recombinant human BTK protein (Q06187 whole entry): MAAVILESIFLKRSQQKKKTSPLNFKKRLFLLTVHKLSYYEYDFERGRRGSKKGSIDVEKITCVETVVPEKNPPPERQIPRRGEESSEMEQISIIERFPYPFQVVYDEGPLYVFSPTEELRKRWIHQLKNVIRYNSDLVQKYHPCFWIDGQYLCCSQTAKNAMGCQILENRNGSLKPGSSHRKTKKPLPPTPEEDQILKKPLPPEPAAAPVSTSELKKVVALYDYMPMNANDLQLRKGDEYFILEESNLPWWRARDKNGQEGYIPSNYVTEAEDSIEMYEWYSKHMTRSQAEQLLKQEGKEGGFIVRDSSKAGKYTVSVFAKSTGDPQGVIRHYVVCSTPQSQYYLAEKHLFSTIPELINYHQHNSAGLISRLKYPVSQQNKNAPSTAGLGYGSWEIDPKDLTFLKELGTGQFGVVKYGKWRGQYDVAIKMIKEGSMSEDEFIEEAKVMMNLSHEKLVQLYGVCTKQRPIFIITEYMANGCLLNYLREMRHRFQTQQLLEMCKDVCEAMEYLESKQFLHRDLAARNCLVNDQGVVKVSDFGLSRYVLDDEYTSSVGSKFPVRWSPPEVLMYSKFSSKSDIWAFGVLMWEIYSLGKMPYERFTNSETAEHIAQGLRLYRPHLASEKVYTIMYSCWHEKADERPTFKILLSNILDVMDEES

Weight change ratio, Adsorption ([1]; relative humidity 5%): 0.01%
Weight change ratio, Desorption ([1]; relative humidity 5%): 0.05%
Weight change ratio, Adsorption ([1]; relative humidity 20%): 0.14%
Weight change ratio, Desorption ([1]; relative humidity 20%): 0.17%
Weight change ratio, Adsorption ([1]; relative humidity 40%): 0.30%
Weight change ratio, Desorption ([1]; relative humidity 40%): 0.33%
Weight change ratio, Adsorption ([1]; relative humidity 60%): 0.37%
Weight change ratio, Desorption ([1]; relative humidity 60%): 0.41%
Weight change ratio, Adsorption ([1]; relative humidity 80%): 0.45%
Weight change ratio, Desorption ([1]; relative humidity 80%): 0.49%
Weight change ratio, Adsorption ([1]; relative humidity 95%): 0.60%
Weight change ratio, Desorption ([1]; relative humidity 95%): 0.60%
mass change (increase) ([1]; relative humidity of 95%): less than 1%
IC50 [2]: 1.19 nM
BTK inhibition selectivity against EGFR kinase relative to Comparative compound 1 ([3]; in vitro kinase): about 13 times
EGFR inhibitory activity IC50 value (nM)/BTK inhibitory activity IC50 value (nM) ([3]; selectivity ratio): 16.90
Cmax relative to that of Compound A ([5]; 50 mg/kg): about two fold
AUC0-6 hr [5, 6]: 7.33 µM·h
Cmax [5, 6]: 7.63 µM
Tmax [5, 6]: 15 min
Structure (SMILES): C=CC(=O)N1CCC[C@@H](n2nc(C(=O)Nc3nc4ccccc4o3)c3c(N)ncnc32)C1.O=C(O)/C=C/C(=O)O [monofumarate of Compound A, (R)-1-(1-acryloylpiperidin-3-yl)-4-amino-N-(benzo[d]oxazol-2-yl)-1H-pyrazolo[3,4-d]pyrimidine-3-carboxamide.monofumarate]
BTK inhibition selectivity in the cell proliferation inhibition ratio relative to Comparative compound 1 (A431 cells / TMD8 cells; A431/TMD8): about 65 times
A431 cell proliferation inhibition ratio/TMD8 cell proliferation inhibition ratio (A431 cells / TMD8 cells; GI50 based, 3 days culture, CELLTITER GLO): 7643
arthritis score [4]: lowered the arthritis score effectively

— patent US10280174B2, “Salt of fused pyrimidine compound and crystal thereof” (TAIHO PHARMACEUTICAL CO., LTD., priority 2015, dated 2019)
